# According to article PMC10955071, “AGRAMP: machine learning models for predicting antimicrobial peptides against phytopathogenic bacteria” (Frontiers in Microbiology, 2024):
# Like-named read-outs stand apart in the source and are kept apart here. Ends that are not written are not given here.
# Experiments:
# Spiroplasma citri = details: cited from earlier work; for MIC concentration: S. citri, ref Béven et al. (1997); for MIC: spiroplasma MIC from literature
# Excerpt: Table 7 Aggregation values of AMPs, predicted AMPs, and predicted NOAMPs. | column: MIC; Lab assay || Figure 6 Charge density analysis of predicted antimicrobial peptides (AMPs) tested in minimum inhibitory concentration (MIC) assays. […] The secondary structure of each AMP is indicated at the bottom of the respective graph. […] Intriguingly, the LK peptides had higher aggregation propensities (in the high 40s and 50s), while the peptides in the 1997 study had slightly positive (5.7, 1.3) and negative (−1.3) aggregation scores when input into AGGRESCAN. The positive control, Mel ...
# [1] = system: Spiroplasma citri strain R8A2; details: for MIC: S. citri R8A2, LD8A3 medium + fetal bovine serum, phenol red, OD560, 48 h, triplicate, Resistant = ineffective; for activity against Spiroplasma citri in MIC assay (Positive/Negative, figure heading): Figures 5 and 6, positive = high activity, negative = no activity in MIC assay
# [2] = ref Bevin1997 (Béven et al., 1997)
# [3] = ref Bevin2002 (Béven et al., 2003)
substance,measurement,setting,value
"MGLGLHLLVLAAALQGAKKKRKV [P3, synthetic peptide from Béven et al., 1997]",MIC concentration,Spiroplasma citri,100 µM
same,MIC,Spiroplasma citri; [2],100 µM
"MGLGLHLLLAAALQGAKKKRKV [P2, synthetic peptide from Béven et al., 1997]",MIC concentration,Spiroplasma citri,100 µM
same,MIC,Spiroplasma citri; [2],100 µM
MERRRLAAKLANKLVRIGWIG [I5196],MIC,[1],Resistant
MLIMRKIKKKKRKNRHI [G54],MIC,[1],Resistant
MCRRKGGLIGRAPPCRGRLAC [G9994],MIC,[1],Resistant
MAQSKRYKARLVAKRIHAVKKY [G221],"activity against Spiroplasma citri in MIC assay (Positive/Negative, figure heading)",[1],Negative
same,MIC,[1],Resistant
MKSIKIKIKRLNSKNKKILILIFI [I970],SpiroC MIC (48hrs),[1],25 µg/mL
MILSVLKIFGVFRKRSRGN [I3440],SpiroC MIC (48hrs),[1],25 µg/mL
MLKCHLVGFVRRLIN [I2572],SpiroC MIC (48hrs),[1],25 µg/mL
MITGRQKALKFIKKKVGGIQ [G196],MIC,[1],Resistant
"MGLGLHLLVLAAALQGAWSQPKKKRKV [P1, synthetic peptide from Béven et al., 1997]",MIC concentration,Spiroplasma citri,100 µM
same,MIC,Spiroplasma citri; [2],100 µM
MSRKLRKGKRQLKSPRFGKIVI [I2769],MIC,[1],Resistant
MFLLRRILKKLRTIFIQ [I3435],MIC,[1],50 µg/mL
same,SpiroC MIC (48hrs),"[1]; Set1, tested at 50, 25, 12.5 μg/mL, OD560, triplicate",50 µg/mL
MGFLLKTLSHIRRVIRLII [G389],MIC (48hrs) Resistant (R),[1],50 µg/mL
MLNLKLIRLLRHRFAI [G15],MIC (48hrs) Resistant (R),[1],50 µg/mL
MIDNKIGLVVKWLRSK [I3775],MIC,[1],Resistant
MMKKVIKLQKMIALGKIVKRFSLY [I4455],SpiroC MIC (48hrs),[1],12.5 µg/mL
MILRLPHLINCTTTGLISKITSYLG [I4992],"activity against Spiroplasma citri in MIC assay (Positive/Negative, figure heading)",[1],Negative
same,MIC,[1],Resistant
MARKAISKVIVGTRRKKKK [G66],MIC,[1],Resistant
MIVRIAIRRFLKGKRQIVKI [G33],MIC (48hrs) Resistant (R),[1],25 µg/mL
"KLLKLLLKLLLKLWK [LK15_W14_3.6, LK peptide (leucine/lysine copolymer) from Béven et al., 2003]",MIC,Spiroplasma citri; [3],6.25 µM
MILKRVFRMKNKKASV [G10159],MIC,[1],Resistant
MVSHLFCFKFIRNLRFKKIR [G19],MIC (48hrs) Resistant (R),[1],50 µg/mL
MLLQRLIFKPIRIIWHT [I3441],SpiroC MIC (48hrs),[1],25 µg/mL
"KLLKLLLKLLLKLLK [LK15_3.6, LK peptide (leucine/lysine copolymer) from Béven et al., 2003]",MIC,Spiroplasma citri; [3],6.25 µM
"Mellitin: positive control peptide in Béven et al., 1997",MIC,Spiroplasma citri; [2],0.39 to .78 µM
